1 compound from publication PMC4175339, “Inhibition of the Functional Interplay between Endoplasmic Reticulum (ER) Oxidoreduclin-1α (Ero1α) and Protein-disulfide Isomerase (PDI) by the Endocrine Disruptor Bisphenol A” (The Journal of Biological Chemistry, 2014) can be followed below.

This assay has as its target T1, human PDI + hyperactive human Ero1α (Ero1α-mediated PDI oxidation) (Homo sapiens, UniProt P07237).
T1 construct: gene P4HB; recombinant from E. coli; with ERO1-like protein alpha
As to the kind of experiment: NADPH consumption assay coupled to glutathione reductase, A340. It is filed as biochemical.

T1 sequence (P07237 18-508): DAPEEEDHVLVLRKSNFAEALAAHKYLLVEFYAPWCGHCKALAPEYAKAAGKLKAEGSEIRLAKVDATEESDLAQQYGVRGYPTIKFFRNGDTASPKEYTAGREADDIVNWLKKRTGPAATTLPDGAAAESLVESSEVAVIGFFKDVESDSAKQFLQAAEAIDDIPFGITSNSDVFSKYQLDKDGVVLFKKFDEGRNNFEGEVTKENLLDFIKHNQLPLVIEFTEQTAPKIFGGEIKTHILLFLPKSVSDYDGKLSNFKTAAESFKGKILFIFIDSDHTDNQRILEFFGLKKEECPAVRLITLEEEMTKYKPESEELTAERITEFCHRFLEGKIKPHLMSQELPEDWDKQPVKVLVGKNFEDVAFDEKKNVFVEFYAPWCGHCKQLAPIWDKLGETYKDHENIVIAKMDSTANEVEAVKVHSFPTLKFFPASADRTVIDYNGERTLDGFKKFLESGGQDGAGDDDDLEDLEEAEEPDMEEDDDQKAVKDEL
T1 sequence (Q96HE7 24-468 C104A/C131A partner): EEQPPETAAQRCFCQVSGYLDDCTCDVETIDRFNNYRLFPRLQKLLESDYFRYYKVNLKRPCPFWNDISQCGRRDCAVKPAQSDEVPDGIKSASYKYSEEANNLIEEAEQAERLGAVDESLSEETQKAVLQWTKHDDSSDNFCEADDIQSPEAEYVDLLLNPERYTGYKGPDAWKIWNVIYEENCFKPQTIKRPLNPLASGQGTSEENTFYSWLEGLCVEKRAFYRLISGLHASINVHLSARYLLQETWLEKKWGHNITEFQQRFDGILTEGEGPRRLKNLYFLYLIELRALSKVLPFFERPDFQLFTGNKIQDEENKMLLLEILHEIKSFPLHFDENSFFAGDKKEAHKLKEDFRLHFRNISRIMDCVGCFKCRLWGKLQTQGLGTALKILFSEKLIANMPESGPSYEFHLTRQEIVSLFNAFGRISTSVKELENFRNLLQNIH

With `CC(C)(c1ccc(O)cc1)c1ccc(O)cc1` [bisphenol A, 2,2′-bis(4-hydroxyphenyl) propane], the IC50 turned out to be 41 µM.
